Values after ≈ are worked out from the molar mass of the structure shown. Where two headings read alike, the source gives them in different places.
Columns and labels:
[1] = General pharmacology screen in rats; settings: in vivo, rat, doses given in mg./kg; for TD50: po
Kleb. aerobacter = experiment: In vitro minimum inhibitory concentration (MIC), tube dilution test; assay type: cell-based; settings: Kleb. aerobacter (20F); brain-heart infusion broth, 20hour incubation at 37° C.; read-out: Minimal Inhibitory Test Conens. (MIC)
Protocol: (§1) A. In vitro: mimimum inhibitory concentration (MIC)
(§2) The compound was tested in a standard bacteriological tube dilution test for MIC for a variety of bacteria. Stock cultures of the bacteria listed in Table 1 were grown in bacterial culture media at 37° C. overnight and diluted in culture tubes to a previously determined concentration proper for the test. The compound was added to result in final concentrations of 10, 2, 0.4 and 0.08 μg/ml. These were incubated for 18 hours at 37° C. and then observed to determine if growth of bacteria had occurred. The lowest concentration of the compound that inhibited bacterial growth in the MIC.
(§3) *brain-heart infusion broth, 20hour incubation at 37° C.

E. coli = experiment: as above; assay type: cell-based; settings: Escherichia coli, 20 h, brain-heart infusion broth, 20hour incubation at 37° C., read-out: Minimal Inhibitory Test Conens. (MIC)
Protocol: as §1, §2, §3

Strep. pyogenes = experiment: as above; assay type: cell-based; settings: Streptococcus pyogenes; Strep. pyogenes (10V); brain-heart infusion broth, 20hour incubation at 37° C.; read-out: Minimal Inhibitory Test Conens. (MIC)
Protocol: as §1, §2, §3

Sal. typhi = experiment: as above; assay type: cell-based; settings: brain-heart infusion broth, 20hour incubation at 37° C.
Protocol: as §1, §2, §3

Sal. choleraesuis = experiment: as above; assay type: cell-based; settings: Salmonella enterica, 20 h, read-out: Minimal Inhibitory Test Conens. (MIC)
Protocol: as §1, §2, §3

Aero. cloacae = experiment: as above; assay type: cell-based; settings: Enterobacter cloacae; Aero. cloacae (39A); brain-heart infusion broth, 20hour incubation at 37° C.; read-out: Minimal Inhibitory Test Conens. (MIC)
Protocol: as §1, §2, §3

Ser. marcescens = experiment: as above; assay type: cell-based; settings: Serratia marcescens; Ser. marcescens (22); brain-heart infusion broth, 20hour incubation at 37° C.; read-out: Minimal Inhibitory Test Conens. (MIC)
Protocol: as §1, §2, §3

Sal. typhimurium = experiment: as above; assay type: cell-based; settings: Salmonella enterica, 20 h, brain-heart infusion broth, 20hour incubation at 37° C., read-out: Minimal Inhibitory Test Conens. (MIC)
Protocol: as §1, §2, §3

Shiq. dysenteriae = experiment: as above; assay type: cell-based; settings: 20 h, read-out: Minimal Inhibitory Test Conens. (MIC)
Protocol: as §1, §2, §3

Staph. aureus = experiment: as above; assay type: cell-based; settings: Staphylococcus aureus; Staph. aureus (08F); brain-heart infusion broth, 20hour incubation at 37° C.; read-out: Minimal Inhibitory Test Conens. (MIC)
Protocol: as §1, §2, §3

Sal. gallinarum = experiment: as above; assay type: cell-based; settings: Salmonella enterica, 20 h, brain-heart infusion broth, 20hour incubation at 37° C., read-out: Minimal Inhibitory Test Conens. (MIC)
Protocol: as §1, §2, §3

Bac. subtilis = experiment: as above; assay type: cell-based; settings: Bacillus subtilis; Bac. subtilis (07A); brain-heart infusion broth, 20hour incubation at 37° C.; read-out: Minimal Inhibitory Test Conens. (MIC)
Protocol: as §1, §2, §3

Proteus vulgaris = experiment: as above; assay type: cell-based; settings: Proteus vulgaris (14P); brain-heart infusion broth, 20hour incubation at 37° C.; read-out: Minimal Inhibitory Test Conens. (MIC)
Protocol: as §1, §2, §3

[2] = General pharmacology screen in mice; settings: mouse, in vivo, po; for TD50: doses given in mg./kg
Protocol: 17- to 24-hour fasted female white mice, 16-20 g. each, or rats, 70-90 g. each were dosed orally with test drug (or standard) at 0, 4, 12, 36, 108 or 324 mg./kg.
Ataxia--The mouse or rat was placed upright on the bench top facing away from the observer. Motor incoordination manifested by abnormal gait or lack of precision during purposive movements constituted ataxia.
Vertical Bar--The mouse or rat was swung by the tail with head pointing down to a 0.5" diameter (1" diameter for rats), 30.5 cm long vertical rod covered with adhesive tape. Inability to grip the rod with the front paws, sliding or failure to move after being prodded constituted vertical bar loss.
Body Temperature--The rectal temperatures of the mice and rats were taken using a KC-1 thermocouple probe.
Excitement and Irritability--Increased spontaneous motor activity, running and jumping prior to handling were recorded as excitement. Upon handling, jumping, jerking, biting and squeaking were recorded as irritability.
Anorexia--At the end of the 0.5 hour testing period, each mouse was transferred to an individual, clear, Lucite® compartment (13.3 cm×12.7 cm×12.7 cm) with a 0.64 cm×0.64 cm wire mesh floor. Inside each compartment there was a section of a black Lucite® bar [13 cm×1.2 cm×1.2 cm) with ten spot depressions (0.8 cm diameter) each containing 0.05 ml. of 50% sweetened condensed milk. 30 Minutes later the number of milk spots consumed was counted. 5 Mice per drug dose can drink a maximum of 50 spots (2.5 ml. of milk). 15 or fewer spots consumed by 5 mice constituted anorexia.

Pseud. aeruginosa = experiment: In vitro minimum inhibitory concentration (MIC), tube dilution test; assay type: cell-based; settings: Pseudomonas aeruginosa, 20 h, brain-heart infusion broth, 20hour incubation at 37° C., read-out: Minimal Inhibitory Test Conens. (MIC)

With CCn1cc(C(=O)O)c(=O)c2cc3c(cc21)OCO3 [Oxolinic Acid, oxolinic acid] the LD50 at 24 h ([1]; oral, read-out: ED50 24-Hour Mort.) was > 324 mg/kg, the TD50 ([1]; read-out: ED50 Ataxia) was 97 mg/kg and the TD50 ([1]; read-out: ED50 Excitation) was 62 mg/kg. The TD50 ([1]; read-out: ED50 Irritability) was > 324 mg/kg, the TD50 ([1]; rectal temperature, read-out: ED50 Hypertherm.) was 121 mg/kg and the TD50 ([1]; rectal temperature, read-out: ED50 Hypotherm.) was > 324 mg/kg. For the same compound, the TD50 ([1]; vertical bar loss, read-out: ED50 Vert. Bar) was 187 mg/kg, the MIC (Kleb. aerobacter) was > 10 µg/mL and the MIC (E. coli; E. coli (06-2B)) was 2 µg/mL (≈ 7.66 µM). The MIC (E. coli; E. coli (06-2F)) was 0.4 µg/mL (≈ 1.53 µM), the MIC (E. coli; E. coli (06-2L)) was 10 µg/mL (≈ 38.3 µM) and the MIC (E. coli; E. coli (06-2M)) was < 0.08 µg/mL. The MIC (E. coli; E. coli (06C)) was 2 µg/mL (≈ 7.66 µM), the MIC (E. coli; E. coli (06I)) was 10 µg/mL (≈ 38.3 µM) and the MIC (E. coli; E. coli (06J)) was 0.4 µg/mL (≈ 1.53 µM). For the same compound, the MIC (E. coli; E. coli (06K)) was 0.4 µg/mL (≈ 1.53 µM), the MIC (E. coli; E. coli (06L)) was 0.4 µg/mL (≈ 1.53 µM) and the MIC (E. coli; E. coli (06M)) was 0.4 µg/mL (≈ 1.53 µM). For the same compound, the MIC (E. coli; E. coli (06S)) was 2 µg/mL (≈ 7.66 µM), the MIC (E. coli; E. coli (06V)) was 0.4 µg/mL (≈ 1.53 µM) and the MIC (E. coli; E. coli (06X)) was 2 µg/mL (≈ 7.66 µM). For the same compound, the MIC (E. coli; E.coli (06-2D)) was 2 µg/mL (≈ 7.66 µM), the MIC (Strep. pyogenes) was < 0.08 µg/mL and the “Minimal Inhibitory Test Conens. (MIC)” value (Sal. typhi; Sal. typhi (02B)) was 0.4 µg/mL. For the same compound, the MIC (Sal. typhi; Salmonella enterica, Sal. typhi (02A), read-out: Minimal Inhibitory Test Conens. (MIC)) was 0.4 µg/mL (≈ 1.53 µM), the MIC (Sal. choleraesuis) was < 0.08 µg/mL and the MIC (Aero. cloacae) was < 0.08 µg/mL. It also gave an MIC (Ser. marcescens) of 0.4 µg/mL (≈ 1.53 µM), an MIC (Sal. typhimurium; Sal. typhimurium (03A)) of 0.4 µg/mL (≈ 1.53 µM) and an MIC (Sal. typhimurium; Sal. typhimurium (03C)) of 0.4 µg/mL (≈ 1.53 µM). The MIC (Sal. typhimurium; Sal. typhimurium (03K)) was < 0.08 µg/mL, the MIC (Shiq. dysenteriae) was 0.4 µg/mL (≈ 1.53 µM) and the MIC (Staph. aureus) was 0.4 µg/mL (≈ 1.53 µM). For the same compound, the MIC (Sal. gallinarum; Sal. gallinarum (04C)) was 2 µg/mL (≈ 7.66 µM), the MIC (Sal. gallinarum; Sal. gallinarum (04D)) was 0.4 µg/mL (≈ 1.53 µM) and the MIC (Bac. subtilis) was < 0.08 µg/mL. The MIC (Proteus vulgaris) was 2 µg/mL (≈ 7.66 µM), the LD50 at 24 h [2] was > 450 mg/kg and the TD50 ([2]; ED50 Anoroxia, 15 or fewer milk spots consumed by 5 mice) was 21 mg/kg. The TD50 ([2]; ED50 Ataxia) was 3.2 mg/kg, the TD50 ([2]; ED50 Excitation) was 8 mg/kg and the TD50 ([2]; ED50 Hypertherm., rectal temperature) was > 450 mg/kg. For the same compound, the TD50 ([2]; ED50 Hypotherm., rectal temperature) was > 450 mg/kg, the TD50 ([2]; ED50 Irritability) was 36 mg/kg and the TD50 ([2]; ED50 Vert. Bar, vertical bar loss) was 4.5 mg/kg. The MIC (Pseud. aeruginosa; Pseud. aeruginosa (11B)) was 2 µg/mL (≈ 7.66 µM), the MIC (Pseud. aeruginosa; Pseud. aeruginosa (11C)) was 2 µg/mL (≈ 7.66 µM) and the MIC (Pseud. aeruginosa; Pseud. aeruginosa (11D)) was 10 µg/mL (≈ 38.3 µM). It also gave an MIC (Pseud. aeruginosa; Pseud. aeruginosa (11G)) of 10 µg/mL (≈ 38.3 µM), an MIC (Pseud. aeruginosa; Pseud. aeruginosa (11I)) of 2 µg/mL (≈ 7.66 µM) and an MIC (Pseud. aeruginosa; Pseud. aeruginosa (11J)) of 2 µg/mL (≈ 7.66 µM).
